Drawing on PubChem BioAssay AID330 (DTP/NCI, 2004), this text covers T/C for 17 compounds.

Where “and” joins values, the source holds several entries; their conditions need not be identical. Equal values may be shown once. Inconclusive results and toxic doses are left out. Square brackets hold non-standard residues; d marks the D form. Peptide text beside a SMILES is read from it. * marks the point of attachment. Cbz = O=C(OCc1ccccc1)*; Nva = CCC[CH](N)C(=O)O

This test concerns P388 leukemia ip, CD2F1 mice, survival T/C. Kind of test: NCI In Vivo Anticancer Drug Screen. Data for tumor model P388 Leukemia (intraperitoneal) in CD2F1 (CDF1) mice. The settings on record: endpoint: median survival time, higher = longer survival. In short, it runs like this: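 Mice carrying the transplanted tumor received test compound or vehicle. Survival was recorded in each group, and the value is the treated-group measurement divided by that of the vehicle-treated control group.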

Setting [1] is: dose: 100.0 mg/kg/injection, schedule: Q01DX009 (ip), vehicle: saline with Tween-80.
The mark [2] stands for this setting: dose: 200.0 mg/kg/injection, schedule: Q01DX009 (ip), vehicle: saline with Tween-80.
Setting [3] is: dose: 400.0 mg/kg/injection, schedule: Q04DX003 (ip), vehicle: saline with Tween-80.
Where [4] appears, read: dose: 50.0 mg/kg/injection, schedule: Q01DX005 (ip), vehicle: Klucel (hydroxypropylcellulose) (HPC).
[5] abbreviates: dose: 100.0 mg/kg/injection, schedule: Q01DX005 (ip), vehicle: Klucel (hydroxypropylcellulose) (HPC).
The mark [6] stands for this setting: dose: 200.0 mg/kg/injection, schedule: Q01DX005 (ip), vehicle: Klucel (hydroxypropylcellulose) (HPC).
The mark [7] stands for this setting: dose: 60.0 mg/kg/injection, schedule: Q01DX005 (ip), vehicle: saline with Tween-80.
[8] abbreviates: dose: 120.0 mg/kg/injection, schedule: Q01DX005 (ip), vehicle: saline with Tween-80.
The mark [9] stands for this setting: dose: 240.0 mg/kg/injection, schedule: Q01DX005 (ip), vehicle: saline with Tween-80.
Where [10] appears, read: dose: 12.5 mg/kg/injection, schedule: Q01DX009 (ip), vehicle: saline with Tween-80.
Where [11] appears, read: dose: 25.0 mg/kg/injection, schedule: Q01DX009 (ip), vehicle: saline with Tween-80.
[12] abbreviates: dose: 50.0 mg/kg/injection, schedule: Q01DX009 (ip), vehicle: saline with Tween-80.
Where [13] appears, read: dose: 50.0 mg/kg/injection, schedule: Q01DX009 (ip), vehicle: saline.
The mark [14] stands for this setting: dose: 100.0 mg/kg/injection, schedule: Q04DX003 (ip), vehicle: saline with Tween-80.
The mark [15] stands for this setting: dose: 200.0 mg/kg/injection, schedule: Q04DX003 (ip), vehicle: saline with Tween-80.

Consider `O=C(Nc1ccc(C2=NCCN2)cc1)c1ccc(C(=O)Nc2ccc(C3=NCCN3)cc2)c(F)c1`, for which the T/C was 109 % of control (dose: 12.5 mg/kg/injection, schedule: Q04DX003 (ip), vehicle: saline with Tween-80); 122 % of control (dose: 25.0 mg/kg/injection, schedule: Q04DX003 (ip), vehicle: saline with Tween-80); 181 % of control under setting [1]; 250 % of control under setting [2]; 200 % of control (dose: 264.0 mg/kg/injection, schedule: Q04DX003 (ip), vehicle: saline with Tween-80); 272 % of control (dose: 400.0 mg/kg/injection, schedule: Q01DX009 (ip), vehicle: saline with Tween-80). Besides, the T/C is 245 % of control under setting [3] and 259 % of control (dose: 600.0 mg/kg/injection, schedule: Q04DX003 (ip), vehicle: saline with Tween-80).

With `COc1c2c(c(C)c3ccc4ccccc4c13)CCN=C2`, the T/C by setting is: under setting [4], 103 % of control; under setting [5], 102 % of control; under setting [6], 113 % of control.

With `CCC(c1ccc(OC)cc1)C(NC(=S)Nc1ccc(Br)cc1)c1ccc(OC)cc1` (stereo unspecified), the T/C (dose: 100.0 mg/kg/injection, schedule: Q01DX001 (ip), vehicle: saline with Tween-80) was 96 % of control; the T/C (dose: 200.0 mg/kg/injection, schedule: Q01DX001 (ip), vehicle: saline with Tween-80) was 99 % of control; the T/C (dose: 400.0 mg/kg/injection, schedule: Q01DX001 (ip), vehicle: saline with Tween-80) is 93 % of control.

As for `COC(=O)CCC(=O)CN1C(=O)c2ccccc2C1=O`, the T/C under setting [7] was 106 % of control, the T/C under setting [8] is 111 % of control and the T/C under setting [9] was 111 % of control.

Regarding `Nc1nc(-c2ccccc2)c(-c2ccccc2)n1C(=O)NCCCl`, the T/C is 114 % of control (dose: 12.5 mg/kg/injection, schedule: Q04DX002 (ip), vehicle: saline with Tween-80); 113 % of control (dose: 25.0 mg/kg/injection, schedule: Q04DX002 (ip), vehicle: saline with Tween-80); 113 % of control (dose: 50.0 mg/kg/injection, schedule: Q04DX002 (ip), vehicle: saline with Tween-80).

As for `CC1=C(C#N)C(=O)OC1(C)C(CC(=O)c1ccccc1)c1ccccc1` (stereo unspecified), the T/C under setting [7] was 92 % of control, the T/C under setting [8] is 87 % of control and the T/C under setting [9] was 91 % of control.

Regarding `CC1(C)N=C(N)N=C(N)N1c1ccc(CCC(=O)Nc2ccc(S(=O)(=O)F)cc2)c(Cl)c1`, the T/C (dose: 6.25 mg/kg/injection, schedule: Q01DX009 (ip), vehicle: saline) was 157 % of control; the T/C under setting [10] is 187 % of control; the T/C (dose: 12.5 mg/kg/injection, schedule: Q01DX009 (ip), vehicle: saline) was 200 % of control; the T/C under setting [11] was 170 % of control; the T/C (dose: 25.0 mg/kg/injection, schedule: Q01DX009 (ip), vehicle: saline) was 209 % of control; the T/C under setting [12] was 91 % of control. Further, the T/C under setting [13] was 190 % of control; the T/C under setting [14] is 170 % of control; the T/C (dose: 132.0 mg/kg/injection, schedule: Q04DX003 (ip), vehicle: saline with Tween-80) is 100 % of control; the T/C under setting [15] is 162 % of control and 190 % of control; the T/C under setting [3] is 95 % of control.

`Clc1cccc(Cl)c1C(Cl)Cl`: the T/C is 95 % of control under setting [14], 109 % of control under setting [15] and 100 % of control under setting [3].

On to `NC(=O)CC(=O)O`, for which the T/C runs as follows: under setting [13], 96 % of control; (dose: 100.0 mg/kg/injection, schedule: Q01DX009 (ip), vehicle: saline) 91 % of control; (dose: 200.0 mg/kg/injection, schedule: Q01DX009 (ip), vehicle: saline) 104 % of control.

`OC(c1cc(-c2ccccc2)nc2c(Cl)cc(Cl)cc12)C1CCCCN1` (stereo unspecified): the T/C by setting is: under setting [10], 107 % of control; under setting [11], 98 % of control; under setting [12], 88 % of control and 95 % of control.

Consider `C[As](C)SCC(N)C(=O)O` (stereo unspecified), for which the T/C runs as follows: (dose: 12.5 mg/kg/injection, schedule: Q01DX009 (ip), vehicle: Klucel (hydroxypropylcellulose) (HPC)) 107 % of control; (dose: 25.0 mg/kg/injection, schedule: Q01DX009 (ip), vehicle: Klucel (hydroxypropylcellulose) (HPC)) 106 % of control; (dose: 50.0 mg/kg/injection, schedule: Q01DX009 (ip), vehicle: Klucel (hydroxypropylcellulose) (HPC)) 103 % of control and 110 % of control.

On to `O=C(O)CCCCOC(C[N+](=O)[O-])C(Cl)(Cl)Cl` (stereo unspecified), for which the T/C is, setting by setting: under setting [12], 100 % of control; under setting [1], 95 % of control; under setting [2], 99 % of control.

Consider `NC(=S)N/N=C/c1ccnnc1`, for which the T/C (dose: 3.12 mg/kg/injection, schedule: Q04DX003 (ip), vehicle: saline) was 104 % of control and 97 % of control; the T/C (dose: 6.25 mg/kg/injection, schedule: Q04DX003 (ip), vehicle: saline) is 100 % of control and 97 % of control; the T/C (dose: 12.5 mg/kg/injection, schedule: Q04DX003 (ip), vehicle: saline) was 104 % of control and 108 % of control; the T/C (dose: 25.0 mg/kg/injection, schedule: Q04DX003 (ip), vehicle: saline) is 98 % of control and 100 % of control; the T/C (dose: 25.0 mg/kg/injection, schedule: Q04DX003 (ip), vehicle: suspension in saline) is 99 % of control; the T/C (dose: 100.0 mg/kg/injection, schedule: Q04DX003 (ip), vehicle: saline) was 103 % of control. The T/C was 97 % of control (dose: 200.0 mg/kg/injection, schedule: Q04DX003 (ip), vehicle: saline) and 97 % of control (dose: 400.0 mg/kg/injection, schedule: Q04DX003 (ip), vehicle: saline).

As to `CCCC(NC(=O)OCc1ccccc1)C(=O)NC(C(=O)O)C(C)CC` (stereo unspecified) (Cbz-[Nva]-Ile-OH; configuration not given here), the T/C is, setting by setting: under setting [4], 100 % of control; under setting [5], 100 % of control; under setting [6], 101 % of control.

For `CC(C)CCCCCCCCCCCCC(=O)NCC(=O)NC1C(C)OC(Nc2ncnc3nc[nH]c23)C(O)C1O` (stereo unspecified), the T/C was 114 % of control (dose: 0.13 mg/kg/injection, schedule: Q01DX009 (ip), vehicle: other); 121 % of control (dose: 0.25 mg/kg/injection, schedule: Q01DX009 (ip), vehicle: other); 123 % of control (dose: 0.5 mg/kg/injection, schedule: Q01DX009 (ip), vehicle: other); 157 % of control and 163 % of control (dose: 1.0 mg/kg/injection, schedule: Q01DX009 (ip), vehicle: other); 104 % of control (dose: 1.0 mg/kg/injection, schedule: Q01DX009 (oral), vehicle: distilled water + Tween-80); 102 % of control (dose: 2.0 mg/kg/injection, schedule: Q01DX009 (oral), vehicle: distilled water + Tween-80). In addition, the T/C runs as follows: (dose: 4.0 mg/kg/injection, schedule: Q01DX009 (ip), vehicle: other) 97 % of control; (dose: 4.0 mg/kg/injection, schedule: Q01DX009 (oral), vehicle: distilled water + Tween-80) 105 % of control; (dose: 8.0 mg/kg/injection, schedule: Q01DX009 (oral), vehicle: distilled water + Tween-80) 103 % of control; (dose: 16.0 mg/kg/injection, schedule: Q01DX009 (oral), vehicle: distilled water + Tween-80) 104 % of control.

In the case of `[Cl][Sn]([O][Sn]([Cl])([c]1ccccc1)[CH]1CCCCC1)([c]1ccccc1)[CH]1CCCCC1` (stereo unspecified), the T/C is, setting by setting: (dose: 0.19 mg/kg/injection, schedule: Q01DX005 (ip), vehicle: saline) 100 % of control; (dose: 0.39 mg/kg/injection, schedule: Q01DX005 (ip), vehicle: saline) 105 % of control; (dose: 0.79 mg/kg/injection, schedule: Q01DX005 (ip), vehicle: saline) 117 % of control.

As to `Cn1c(=O)c(CCCC(=O)O)nc2ccccc21`, the T/C runs as follows: (dose: 100.0 mg/kg/injection, schedule: Q04DX002 (ip), vehicle: saline with Tween-80) 97 % of control; (dose: 200.0 mg/kg/injection, schedule: Q04DX002 (ip), vehicle: saline with Tween-80) 102 % of control; (dose: 400.0 mg/kg/injection, schedule: Q04DX002 (ip), vehicle: saline with Tween-80) 107 % of control.
